“And” between values parts separate entries of the source, which are not always exact repeats. Equal entries are not always repeated.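 Briefly, cells in 96-well plates were exposed to five compound concentrations for 48 h, and endpoints were estimated by linear interpolation. At the GI50, growth is halved. TGI denotes the concentration required for complete inhibition of growth.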
Assays:
Test in all cases: DTP human tumour cell line panel, 48 h
OVCAR-8 ovarian = tested on: OVCAR-8 ovarian
MCF7 breast = tested on: MCF7 breast
NCI-H226 lung = tested on: NCI-H226 lung
IGROV1 ovarian = tested on: IGROV1 ovarian
DU-145 prostate = tested on: DU-145 prostate
SK-MEL-5 melanoma = tested on: SK-MEL-5 melanoma
CCRF-CEM leukemia = tested on: CCRF-CEM leukemia
HCT-15 colon = tested on: HCT-15 colon
NCI-H522 lung = tested on: NCI-H522 lung
SNB-19 CNS = tested on: SNB-19 CNS

| Structure (SMILES) | GI50 (OVCAR-8 ovarian) | TGI (OVCAR-8 ovarian) | GI50 (MCF7 breast) | TGI (MCF7 breast) | GI50 (NCI-H226 lung) | TGI (NCI-H226 lung) | GI50 (IGROV1 ovarian) | TGI (IGROV1 ovarian) | GI50 (DU-145 prostate) [µM] | TGI (DU-145 prostate) | GI50 (SK-MEL-5 melanoma) | TGI (SK-MEL-5 melanoma) | GI50 (CCRF-CEM leukemia) | TGI (CCRF-CEM leukemia) | GI50 (HCT-15 colon) | TGI (HCT-15 colon) | GI50 (NCI-H522 lung) | TGI (NCI-H522 lung) [µM] | GI50 (SNB-19 CNS) | TGI (SNB-19 CNS) |
| --- | --- | --- | --- | --- | --- | --- | --- | --- | --- | --- | --- | --- | --- | --- | --- | --- | --- | --- | --- | --- |
| CCOC(=O)c1ccccc1SC(C[N+](=O)[O-])c1ccccc1 (configuration not stated) | 10.5 µM | 22.5 µM | 1070 nM | 4.12 µM | 16.1 µM | 44.5 µM | 3.88 µM | 15 µM | 5.91 | 18.4 µM | 5090 nM | 17400 nM | 4640 nM | 36.2 µM | 2.37 µM | 6.78 µM | 11000 nM | 23.3 | 11.7 µM | 23.9 µM |
| COc1cc(OC)c(F)c(COc2cnc(Nc3cnn(CCO)c3)nc2)c1F | 2.24 µM | > 100 µM | 417 nM | > 100 µM | 0.343 µM | > 23.9 µM | 0.595 µM | > 100 µM | 2.15 | > 100 µM | 501 nM | 2710 nM | 669 nM | > 100 µM | 0.482 µM | > 100 µM | 341 nM | 1.65 | 0.796 µM | > 100 µM |
| c1ccc2cc(C[n+]3ccn(Cc4ccc5ccccc5n4)c3)ccc2c1 | 0.754 µM and 3.72 µM | 10.5 µM and 15 µM | 353 nM and 2980 nM | 2.36 µM and 13.4 µM | 1.06 µM and 4.51 µM | 4.87 µM and 21.6 µM | 0.481 µM and 2.22 µM | 3.19 µM and 9.03 µM |  | 12.4 µM and 22.4 µM | 216 nM and 1210 nM | 532 nM and 2500 nM | 728 nM and 3640 nM | 11 µM and 16.4 µM | 12.3 µM and 53.5 µM | 27.7 µM and > 100 µM | 275 nM and 2300 nM |  | 0.338 µM and 3.05 µM | 11 µM and 13.2 µM |
| CC[C@H](C)[C@H](NC(=O)NC(C)(C)C)C(=O)N(C)[C@H](C[C@@H](OC(C)=O)c1nc(C(=O)N[C@@H](Cc2ccccc2)C[C@H](C)C(=O)OC)cs1)C(C)C | 0.936 µM | > 25 µM | 123 nM | > 25 µM | 1.95 µM | > 25 µM | 0.556 µM | > 25 µM | 0.648 | > 6.3 µM | 139 nM | 604 nM | 718 nM | > 25 µM | 0.686 µM | 6.95 µM | 107 nM | 0.765 | 1.12 µM | > 25 µM |
| O=C1NC(=O)[C@@H](c2c[nH]c3ccccc23)[C@@H]1c1c[nH]c2ccccc12 | > 25 µM | > 25 µM | > 25000 nM | > 25 µM | > 25 µM | > 25 µM | > 25 µM | > 25 µM | > 25 | > 25 µM | > 25000 nM | > 25000 nM | > 25000 nM | > 25 µM | > 25 µM | > 25 µM | > 25000 nM | > 25 | > 25 µM | > 25 µM |
| Cc1ccc2nc3c(n2c1)C(=O)C(=O)c1ccccc1-3 | 0.238 µM | 0.655 µM | 140 nM | 0.308 µM | 0.371 µM | 1.29 µM | 0.319 µM |  | 0.288 | 1.12 µM | 112 nM | 244 nM | 429 nM | 3.37 µM | 0.17 µM | 0.416 µM | 216 nM | 0.538 | 0.565 µM | 1.58 µM |
| O=C(Oc1ccccc1Cl)c1ccccc1Nc1cccc(C(F)(F)F)c1 | 32 µM | > 100 µM | 33900 nM | > 100 µM | 20.2 µM | 47.9 µM | 28 µM | > 100 µM | 31.8 | 89 µM | 14800 nM | 30800 nM | 3420 nM | 12.3 µM | 29.4 µM | > 100 µM | 19500 nM | 52.4 | 73.2 µM | > 100 µM |
| COc1cc(-c2nc(-c3ccc(-c4nc5ccc(F)cc5[nH]4)cc3)no2)cc(OC)c1OC | 2.36 µM | 7.61 µM | 2880 nM | 13.5 µM | 2.72 µM | 10.7 µM | 3.81 µM | 14.5 µM | 3.96 | 15.3 µM | 2220 nM | 10200 nM | 2970 nM | 22.3 µM | 3.15 µM | 12.8 µM | 3040 nM | 8.98 | 5.62 µM | > 100 µM |
| COc1ccc(-n2cc(-c3cc(OC)c(OC)c(OC)c3)[nH]c2=S)cc1Cl | 50.2 µM | > 100 µM | 68000 nM | > 100 µM | 27.1 µM | > 100 µM | 25.6 µM | > 100 µM | 35.7 | > 100 µM | 27200 nM | > 100000 nM | 600 nM | > 100 µM | > 100 µM | > 100 µM | > 100000 nM | > 100 | 19.5 µM | 58.4 µM |
| O=C(Cn1c(C(=O)c2ccc(Cl)cc2)nc(-c2ccccc2)c1-c1ccccc1)c1ccc(Cl)cc1 | > 100 µM | > 100 µM | > 100000 nM | > 100 µM | > 100 µM | > 100 µM | > 100 µM | > 100 µM | > 100 | > 100 µM | > 100000 nM | > 100000 nM | > 100000 nM | > 100 µM | > 100 µM | > 100 µM | > 100000 nM | > 100 | > 100 µM | > 100 µM |
